Data taken from patent publication US10076533B2, “Acyclic nucleoside phosphonate diesters” (The Regents of the University of California, priority 2013, dated 2018).
Read-outs that look alike come from different tables or passages of the source.

Key:
[1] = Cytotoxicity in 2.2.15 cells by neutral red uptake; conditions: human
Hepatitis B virus = assay: HBV replication in 2.2.15 cells, HBV DNA blot hybridization; conditions: for EC50: Hepatitis B virus, 168 h; for Selectivity Index: hepatitis B virus, 2.2.15 cells
HPV-16 = HPV-16 origin replication in HEK 293 cells, qPCR; type: cell-based; conditions: for Selectivity Index: HPV-16, HEK 293 cells
Method: (§1) An origin-containing plasmid was co-transfected with HPV-16 E1 and E2 protein expression vectors into HEK 293 cells. At 4 hr post-transfection, cells were treated with compound dilutions and the cells were incubated for 48 hr. Replication of the virus origin was detected with DpnI and exonuclease III to remove unreplicated input bacterial plasmid DNA. Remaining replicated DNA was quantified by qPCR. Toxicity was determined by trypan blue exclusion.

[2] = Toxicity in HEK 293 cells by trypan blue exclusion (HPV-16 example); type: cell-based; conditions: human
Method: as §1

[3] = Viability of PBMC by XTT reduction; conditions: human
HIV-192US727 = assay: Anti-HIV assay in human PBMC, supernatant reverse transcriptase activity; conditions: for Selectivity Index: HIV-192US727, human PBMC
[4] = Cytotoxicity in HFF cells in parallel to HSV-2 assay; conditions: human, […]
HPV-18 = assay: Antiviral effect in HPV-18 infected primary human keratinocyte rafts, qPCR; conditions: for Selectivity Index: HPV-18 keratinocyte rafts; for EC50: Homo sapiens, Keratinocyte
[5] = Toxicity in primary human keratinocyte raft cultures by histology
[6] = Toxicity in HEK 293 cells by trypan blue exclusion (HPV-11 example); type: cell-based; conditions: human
Method: (§2) An origin-containing plasmid was co-transfected with HPV-11 E1 and E2 protein expression vectors into HEK 293 cells. At 4 hr post-transfection, cells were treated with compound dilutions and the cells were incubated for 48 hr. Replication of the virus origin was detected with DpnI and exonuclease III to remove unreplicated input bacterial plasmid DNA. Remaining replicated DNA was quantified by qPCR. Toxicity was determined by trypan blue exclusion.

[7] = Cytotoxicity in MT-2 cells, flow cytometry cell counts and viability; type: cell-based, human; conditions: human; MT-2 cells, 72 hrs
Method: (§3) MT-2 cells were incubated with drug for 72 hrs and harvested. Flow count beads (Beckman Coulter, Miami, Fla.) were added to the cell suspension followed by propidium iodide staining and analysis using flow cytometer and the 50% cytotoxic concentration (CC50) was calculated from the cell counts and viability.

Caski (HPV-16) = assay: Antiproliferative activity, neutral red, Caski cervical cancer cells; conditions: for CC50: Homo sapiens, Ca-Ski, 96 h, read-out: Cytotoxic concentration 50% (CC50) Caski (HPV-16)
[8] = system: Copenhagen strain of vaccinia virus; assay: microbe, parasite or virus in culture; type: cell-based; conditions: for EC50: Orthopoxvirus vaccinia, HFF, 168 h; for Selectivity Index: vaccinia virus (Copenhagen), HFF cells
[9] = Antiproliferative activity, neutral red, normal human fibroblasts; conditions: normal human fibroblasts (HFF), monolayer culture
HIV-1LAI = assay: HIV antiviral assay in MT-2 cells, p24 reduction; conditions: for EC50: Human immunodeficiency virus 1, MT2, 96 h
Hela (HPV-18) = assay: Antiproliferative activity, neutral red, Hela cervical cancer cells; conditions: Homo sapiens, 96 h, read-out: Cytotoxic concentration 50% (CC50) Hela (HPV-18)
[10] = human
[11] = system: BK virus (Gardner strain); assay: Antiviral effect in HFF cells infected with BK virus (Gardner strain), qPCR; conditions: for Selectivity Index: BK virus (Gardner strain), HFF cells; for EC50: Betapolyomavirus hominis, HFF, 336 h
[12] = system: AD169 strain of human cytomegalovirus; assay: Antiviral effect in HFF cells infected with human cytomegalovirus (AD169); conditions: for EC50: Human betaherpesvirus 5, AD169, HFF, 336 h; for Selectivity Index: human cytomegalovirus (AD169), HFF cells
MAD-1 strain of JC virus = assay: Antiviral effect in JC virus (MAD-1) infected COS7 cells, qPCR; conditions: for EC50: JC polyomavirus, COS-7, 168 h; for Selectivity Index: JC virus (MAD-1), COS7 cells
HPV-11 = HPV-11 origin replication in HEK 293 cells, qPCR; type: cell-based; conditions: for EC50: HEK293, HPV-11 origin replication in HEK 293 cells, 48 hr, qPCR; for Selectivity Index: HPV-11, HEK 293 cells
Method: as §2

[13] = African green monkey, uninfected COS7 cells
[14] = Cytotoxicity in HFF cells in parallel to HSV-1 assay; conditions: human, […]
in vitro = conditions: human
[15] = Cytotoxicity in HFF cells in parallel to cytomegalovirus assay; conditions: human, […]
[16] = system: Human peripheral blood monocyte (PBMC); assay: Viability of PBMC by XTT reduction; conditions: human PBMC, XTT reduction
[17] = Effect of oral compounds on body weight in Balb-c mice; type: in vivo
Method: Compounds were administered at the indicated doses by oral gavage daily for 5 days. Weights measured before and on day 6 after 5 doses.

MT-2 cells = assay: Cytotoxicity in MT-2 cells, flow cytometry cell counts and viability; type: cell-based, human; conditions: Homo sapiens, MT2; 72 hrs; read-out: CC50, 50% Cytotoxic concentration MT2 cells T cell leukemia
Method: as §3

[18] = Human immunodeficiency virus 1, PBMC, 168 h
[19] = HEK293, HPV-16 origin replication in HEK 293 cells, 48 hr, qPCR, read-out: EC50

SMILES	CC50 at 7 days [1]	EC50 (Hepatitis B virus)	Selectivity Index (Hepatitis B virus)	Selectivity Index (HPV-16)	CC50 at 48 h [2]	Selectivity Index (HIV-192US727)	EC50 (HIV-192US727; [18])	CC50 at 3 days [4]	CC50 at 48 h [6]	CC50 at 72 h [7]	EC50 (HIV-1LAI)	EC50 (HPV-16; [19])	CC50 at 14 days [10]	Selectivity Index [11]	EC50 [11]	EC50 [12]	Selectivity Index [12]	EC50 (MAD-1 strain of JC virus)	Selectivity Index (MAD-1 strain of JC virus)	CC50 at 7 days ([3]; PHA-stimulated human PBMCs)	also measured
CCCCCCCCCCCCCCCCCCOCCOP(=O)(COCCn1cnc2c(=O)[nH]c(N)nc21)Oc1ccccc1 (stereo not shown) [Compound 19, phenyl octadecyloxyethyl 9-(2-phosphonomethoxyethyl)guanine]	> 100000 nM	43000 nM	>2.33	>1.9	> 10000 nM	>9.0	< 3 nM														EC50 (HPV-16; HEK293, 48 h): 5270 nM; CC50 at 7 days [3]: 18 nM
CCCCCCCCCCCCCCCCCCOCCOP(=O)(CO[C@H](CO)Cn1ccc(=O)[nH]c1=O)OCc1ccccc1 (stereo partly drawn) [Compound 221, benzyl octadecyloxyethyl 9-(S)-[3-hydroxy-2-(phosphonomethoxy)propyl]uracil]								> 10000 nM													
CCCCCCCCCCCCCCCCCCOCCOP(=O)(CO[C@H](CO)Cn1cnc2c(N)ncnc21)OCc1ccccc1 (stereo partly drawn) [Compound 218, benzyl octadecyloxyethyl 9-(S)-[3-hydroxy-2-(phosphonomethoxy)propyl] adenine]	> 100000 nM	760 nM	>132	>41.7	> 10000 nM	>23.0	< 10 nM	6910 nM	> 100000 nM	2300 ± 1600 nM	130 ± 140 nM	240 nM	2800 nM	>93	< 30 nM	< 30 nM	>250	> 4000 nM	<2.6	230 nM	Selectivity Index (HPV-18): >39; EC50 (HPV-18): 250 nM; CC50 [5]: > 10000 nM; CC50 (Caski (HPV-16)): 55 nM; EC50 [8]: < 30 nM; Selectivity Index [8]: >3330; CC50 at 4 days [9]: 5200 nM; CC50 (Hela (HPV-18)): 29 nM; EC50 (HPV-11): 770 nM; Selectivity Index (HPV-11): >370; CC50 at 7 days [13]: 10200 nM; CC50 at 3 days [14]: 14500 nM; CC50 (in vitro): > 100000 nM; CC50 at 14 days [15]: 7490 nM
CCCCCCCCCCCCCCCCOCCCOP(=O)(COCCn1cnc2c(=O)[nH]c(N)nc21)Oc1ccccc1 (stereo not shown) [Compound 25, phenyl hexadecyloxypropyl 9-(2-phosphonomethoxyethyl)guanine]																					CC50 [16]: 250 nM; EC50 (HIV-192US727; HIV-192US727 infected human PBMC, 7 days, supernatant reverse transcriptase activity): < 2 nM
CCCCCCCCCCCCCCCCCCOCCOP(=O)(CO[C@H](CO)Cn1ccc(N)nc1=O)OCc1ccccc1 (stereo partly drawn) [Compound 219, benzyl octadecyloxyethyl 1-(S)-[(3-hydroxy-2-phosphonomethoxy)propyl]cytosine]	> 100000 nM	450 nM	>223	>4.48	> 10000 nM	>28.7	< 100 nM	13100 nM	> 10000 nM	18000 ± 3600 nM	2700 ± 2100 nM	2230 nM	6540 nM	>218	< 30 nM	< 30 nM	>2807	> 4000 nM	<3.2	2870 nM	Selectivity Index (HPV-18): >9.4; EC50 (HPV-18): 1060 nM; CC50 [5]: > 10000 nM; CC50 (Caski (HPV-16)): 2000 nM; fold more effective in reducing viable cell number in the cervical cancer lines than in normal, non-transformed human fibroblasts (Caski (HPV-16); cervical cancer lines (Caski, Hela) vs HFF): 23.6 fold; EC50 [8]: 90 nM; Selectivity Index [8]: >1110; CC50 at 4 days [9]: 52000 nM; Selectivity Index (HIV-1LAI; CC50/EC50, MT-2 cells): 6.7; CC50 (Hela (HPV-18)): 2200 nM; EC50 (HPV-11): 2040 nM; Selectivity Index (HPV-11): >4.9; CC50 at 7 days [13]: 12800 nM; CC50 at 3 days [14]: 19300 nM; body weight Day 6 ([17]; 20 mg/kg/day oral gavage daily for 5 days): 19.27 ± 1.32 (6); body weight Day 0 ([17]; 20 mg/kg/day oral gavage, before dosing): 19.03 ± 1.16 (6); CC50 (in vitro): > 100000 nM; CC50 at 14 days [15]: 84200 nM
CCCCCCCCCCCCCCCCCCOCCOP(=O)(COCCn1cnc2c(N)ncnc21)OCc1ccccc1 (stereo not shown) [Compound 2, benzyl octadecyloxyethyl 9-(2-phosphonomethoxyethyl)adenine]	> 100000 nM	880 nM	>113	>10.1	> 10000 nM	>1100	< 10 nM		> 100000 nM	< 10 nM	< 0.01 nM	990 nM	7140 nM	>238	< 30 nM	110 nM	166	> 4000 nM	<2.7	11000 nM	CC50 (MT-2 cells): < 10 nM; EC50 (HPV-11): 270 nM; Selectivity Index (HPV-11): >130; CC50 at 7 days [13]: 10600 nM; CC50 at 3 days [14]: 16600 nM; CC50 at 14 days [15]: 18300 nM
